Target: T1, Recombinant human renin (Homo sapiens, UniProt P00797)
T1 construct: isolate the active form (residues 67-406); made in house; host or cells: FreeStyle 293-F cells (transient expression of pcDNA3.1(+)/hREN)
T1 sequence (P00797 67-406): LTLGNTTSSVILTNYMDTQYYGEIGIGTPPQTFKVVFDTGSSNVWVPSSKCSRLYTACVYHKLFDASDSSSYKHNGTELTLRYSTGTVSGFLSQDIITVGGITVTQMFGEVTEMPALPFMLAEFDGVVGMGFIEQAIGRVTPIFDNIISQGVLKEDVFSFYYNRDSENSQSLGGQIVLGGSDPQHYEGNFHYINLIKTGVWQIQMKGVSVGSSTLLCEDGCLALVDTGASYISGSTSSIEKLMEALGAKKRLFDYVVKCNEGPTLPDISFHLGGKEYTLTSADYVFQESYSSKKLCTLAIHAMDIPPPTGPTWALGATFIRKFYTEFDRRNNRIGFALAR
Assay: In vitro enzymatic activity assay of renin inhibitors (fluorogenic peptide substrate)
Assay type: biochemical
Conditions: read-out: IC50 of Exemplified Compounds Against Renin
Method in brief: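 Enzyme: recombinant human renin, 3 nM final, 10 min compound pre-incubation at 37 °C; buffer 50 mM Hepes pH 7.4 with 0.1 mg/mL BSA or extra 2% BSA; 5% DMSO.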

`COCCCn1c([C@@H]2CCCN(C(=O)C[C@H](N)Cc3ccc4ccccc4c3)C2)nc2c(OC)cccc21` [Compound 104, (R)-3-amino-1((R)-3-(4-methoxy-1-(3-methoxypropyl)-1H-benzo[d]imidazol-2-yl)piperidin-1-yl)-4-(naphthalen-2-yl)butan-1-one] was tested, and the IC50 was 100 to 1000 nM.

Molecule `COCCCn1c([C@@H]2CCCN(C(=O)C[C@H](N)Cc3ccc(-n4c(=O)[nH]c5ccccc54)cc3)C2)nc2ccccc21` [Compound 212] has an IC50 of under 100 nM.

In the case of `COCCCn1c([C@@H]2CCCN(C(=O)C[C@H](N)Cc3ccc4ccccc4c3)C2)nc2ccc(Cl)cc21` [Compound 99, (R)-3-amino-1-((R)-3-(6-chloro-1-(3-methoxypropyl)-1H-benzo[d]imidazol-2-yl)piperidin-1-yl)-4-(naphthalen-2-yl)butan-1-one], the IC50 is reported as 100 to 1000 nM.

With `COCCCn1c([C@@H]2CCCN(C(=O)C[C@H](N)CNC(=O)c3cc4ccccc4o3)C2)nc2ccccc21` [Compound 263, N-((S)-2-amino-4-((R)-3-(1-(3-methoxypropyl)-1H-benzo[d]imidazol-2-yl)piperidin-1-yl)-4-oxobutyl)benzofuran-2-carboxamide] the IC50 was 100 to 1000 nM.

`N[C@H](C(=O)N1CCCC(c2nc3ccccc3[nH]2)C1)C1CCCCC1` (stereo partly drawn) [Compound 61, (2S)-1-(3-(1H-benzo[d]imidazol-2-yl)piperidin-1-yl)-2-amino-2-cyclohexylethanone] showed an IC50 of over 1000 nM.

`COCCCn1c([C@@H]2CCCN(C(=O)C[C@H](N)c3cccnc3)C2)nc2ccccc21` [Compound 119, (S)-3-amino-1((R)-3-(1-(3-methoxypropyl)-1H-benzo[d]imidazol-2-yl)piperidin-1-yl)-3-(pyridin-3-yl)propan-1-one] gave an IC50 of 100 to 1000 nM.

For `COCCCn1c([C@@H]2CCCN(C(=O)C[C@H](N)Cc3ccc(C(=O)NC4CCCCC4)cc3)C2)nc2ccccc21` [Compound 203, 4-((R)-2-amino-4-((R)-3-(1-(3-methoxypropyl)-1H-benzo[d]imidazol-2-yl)piperidin-1-yl)-4-oxobutyl)-N-cyclohexylbenzamide], the IC50 was 100 to 1000 nM.

`COCCCn1c([C@@H]2CCCN(C(=O)C[C@H](N)Cc3ccc4ccccc4c3)C2)nc2ccc(C(C)C)cc21` [Compound 116, (R)-3-amino-1-((R)-3-(6-isopropyl-1-(3-methoxypropyl)-1H-benzo[d]imidazol-2-yl)piperidin-1-yl)-4-(naphthalen-2-yl)butan-1-one] gave an IC50 of 100 to 1000 nM.

With `COCCCn1c([C@@H]2CCCN(C(=O)[C@@H]3CN(C(=O)C4CCCC4)C[C@H]3N)C2)nc2ccccc21` [Compound 395, ((3R,4S)-4-amino-1-(cyclopentanecarbonyl)pyrrolidin-3-yl)((R)-3-(1-(3-methoxypropyl)-1H-benzo[d]imidazol-2-yl)piperidin-1-yl)methanone] the IC50 was over 1000 nM.

With `COCCCn1c([C@@H]2CCCN(C(=O)[C@@H]3CN(S(=O)(=O)c4cc(Cl)c(Cl)cc4Cl)C[C@H]3N)C2)nc2ccccc21` [Compound 345, ((3R,4S)-4-amino-1-(2,4,5-trichlorophenylsulfonyl)pyrrolidin-3-yl)((R)-3-(1-(3-methoxypropyl)-1H-benzo[d]imidazol-2-yl)piperidin-1-yl)methanone] the IC50 was 100 to 1000 nM.

In the case of `COCCCn1c([C@@H]2CCCN(C(=O)[C@@H]3CN(c4cccc(C#N)c4)C[C@H]3N)C2)nc2ccccc21` [Compound 507], the IC50 is reported as 100 to 1000 nM.

With `COCCCn1c(C2CCCN(C(=O)C[C@H](N)c3ccccc3)C2)nc2ccccc21` (stereo partly drawn) [Compound 66, (3S)-3-amino-1-(3-(1-(3-methoxypropyl)-1H-benzo[d]imidazol-2-yl)piperidin-1-yl)-3-phenylpropan-1-one] the IC50 was over 1000 nM.

With `COCCCn1c([C@@H]2CCCN(C(=O)[C@@H]3CN(S(=O)(=O)c4ccc(F)cc4Cl)C[C@H]3N)C2)nc2ccccc21` [Compound 349, ((3R,4S)-4-amino-1-(2-chloro-4-fluorophenylsulfonyl)pyrrolidin-3-yl)((R)-3-(1-(3-methoxypropyl)-1H-benzo[d]imidazol-2-yl)piperidin-1-yl)methanone] the IC50 was 100 to 1000 nM.
